From ChEMBL document CHEMBL1156584, “Metal-free artificial nucleases based on simple oxime and hydroxylamine scaffolds” (Bioorg Med Chem Lett, 2008) come the findings set out here.

Assay [1] concerns Escherichia coli. The assay can be described thus: Inhibition of Escherichia coli DH5alpha pBSK-2 DNA cleavage in HEPES buffer at pH 8.0 after 8 hrs by agarose gel electrophoresis in presence of distamycin. More on the design: concentration or dose not given beside the values.
For assay [2], the system named is Escherichia coli. Description: Ratio of Kcat to Km for induction of Escherichia coli DH5alpha pBSK-2 DNA cleavage in PIPES buffer at pH 7.0 after 16 hrs by agarose gel electrophoresis.
Assay [3] concerns Escherichia coli. Description: Inhibition of Escherichia coli DH5alpha pBSK-2 DNA cleavage in HEPES buffer at pH 8.0 after 8 hrs by agarose gel electrophoresis in presence of DMSO. More on the design: concentration or dose not given beside the values.
Assay [4] concerns Escherichia coli. The assay can be described thus: Induction of Escherichia coli DH5alpha pBSK-2 DNA cleavage in PIPES buffer at pH 7.0 after 16 hrs by agarose gel electrophoresis.
Assay [5] deals with Escherichia coli. The assay can be described thus: Ratio of Kcat to Km for induction of Escherichia coli DH5alpha pBSK-2 DNA cleavage in HEPES buffer at pH 8.0 after 16 hrs by agarose gel electrophoresis.
Assay [6] deals with Escherichia coli. The assay can be described thus: Induction of Escherichia coli DH5alpha pBSK-2 DNA cleavage in HEPES buffer at pH 8.0 after 16 hrs by agarose gel electrophoresis.
The subject of assay [7] is Escherichia coli. The assay can be described thus: Induction of Escherichia coli DH5alpha pBSK-2 DNA cleavage in CHES buffer at pH 9.0 after 16 hrs by agarose gel electrophoresis.
In assay [8] the test system is Escherichia coli. Description: Inhibition of Escherichia coli DH5alpha pBSK-2 DNA cleavage in CHES buffer at pH 9.0 after 8 hrs by agarose gel electrophoresis in presence of glycerol. More on the design: scale not given: the % may be the effect or the level left.
In assay [9] the test system is Escherichia coli. The assay can be described thus: Ratio of Kcat to Km for induction of Escherichia coli DH5alpha pBSK-2 DNA cleavage in CHES buffer at pH 9.0 after 16 hrs by agarose gel electrophoresis.

Turning to `CN(C)c1ccc(/C=N/O)cc1`, the Activity amounted to 2% in assay [1] and 8% in [3]. Also, the kcat/Km (in general, the turnover number divided by the Michaelis constant) in [2] amounted to 1010 M⁻¹ h⁻¹. For the same compound, in assay [4], the Km (in general, the substrate concentration at which the rate is half of its maximum) was 140 µM. The kcat in assay [4] stood at 141 ×10⁻³ /hr.

As to `CN(C)c1ccc(CNO)cc1`, the Activity in assay [1] worked out at 14%. For the same compound, the kcat/Km in [5] was found to be 570 M⁻¹ h⁻¹. For the same compound, in [3], the Activity turned out to be 12%. Besides, in assay [6], the Km was determined as 140 µM and the kcat came to 79 ×10⁻³ /hr.

Consider `NOCc1ccccc1`, for which the Activity is 61% in assay [1], 73% in assay [3] and 71% in [8]. Further, the Km in assay [7] was 70 µM. In addition, in [7], the kcat stood at 424 ×10⁻³ /hr. For the same compound, the kcat/Km in assay [9] came out at 6060 M⁻¹ h⁻¹.

With `ON(Cc1ccccc1)Cc1ccccc1`, the Activity in assay [1] was 10%. Also, the kcat/Km in [5] turned out to be 1430 M⁻¹ h⁻¹. The Activity in assay [3] worked out at 14%. Further, in [6], the Km came to 110 µM and the kcat turned out to be 157 ×10⁻³ /hr.

On to `ONCc1ccc2c(c1)OCO2`, for which the Activity in assay [1] worked out at 20%. Moreover, in [5], the kcat/Km came to 3130 M⁻¹ h⁻¹. Also, the Activity in assay [3] turned out to be 16%. Also, in assay [6], the Km was 60 µM and the kcat came out at 187 ×10⁻³ /hr.
